{"source": "patent US20250082781A1", "about": "“METHODS OF LOWERING BLOOD GLUCOSE AND TREATING TYPE 2 DIABETES BY ACTIVATION OF PDE4D3” (Salk Institute for Biological Studies, priority 2021, published 2025)", "key": {"[1]": {"system": "HSL phosphorylation at S660", "assay": "Western blot of pHSL-S660 in 3T3-L1 adipocytes", "assay_type": "cell-based", "conditions": "basal and ISO-stimulated, FGF1 100 ng/ml", "method": "Tissues were lysed in cold lysis buffer (50 mM Tris, pH 7.5, 150 mM NaCl, 1% NP40, 0.5% NaDoc, 0.1% SDS, 5% glycerol, 1 mM EDTA, protease and phosphatase inhibitors (complete and PhosSTOP (Roche)) by homogenization by bead-beater for 30 s. Samples were cleared for 10 min at 18,000 g at 4° C. and the middle clear phase was transferred to new tubes. A second 30 min centrifugation was performed and the middle clear phase was transferred to new tubes. Five ul protein extract was used for BCA assay to determine protein concentration. Samples were boiled in Laemmli buffer. SDS-PAGE and blotting were performed using gradient gels and Trans-Blot Turbo Transfer System (Bio-Rad). Antibodies used were PDE4D (12918-1-AP, Proteintech), pHSL-660 (4126S, Cell signaling), HSL (4107S, Cell Signaling), tubulin (CP06, Millipore Sigma), and GFP (A01388, GenScript). PDE4D3-pS44 phospho-specific antibody was generated using PDE4D3-S44 FRRHpSWISFDVDNGTSAGR peptide (SEQ ID NO: 20) (Mackenzie et al., 2002) by Pocono Rabbit Farm, using 70-day rabbit antibody production protocol and purified via affinity purification. Primary antibodies were incubated for 2 h at room temperature (RT) or overnight (ON) at 4° C. Blots were developed using SuperSignal West Pico PLUS Chemiluminescent Substrate (ThermoFisher Scientific) and imaged with BioRad GelDoc system."}, "[2]": {"system": "mouse SVF-derived adipocytes", "assay": "In vitro lipolysis assay (FFA release), mouse SVF-derived adipocytes", "assay_type": "cell-based", "method": "Isolation of adipose stromal fraction (SVF) was performed as published previously with slight modifications (Bapat et al., 2015). Inguinal adipose (iWAT) tissues were used for isolation of SVF due their ability to differentiate to mature adipocytes. Briefly, adipose tissues were dissected, washed in cold PBS and cut into small pieces in digestion buffer (100 mM HEPES, 120 mM NaCl, 50 mM KCl, 1 mM CaCl2), 1.5% fatty acids free BSA, 1 mg/ml collagenase I). Samples were dissociated in 37° C. water bath with shaking for 30-60 min with occasional monitoring to prevent over digestion. Tissue debris were filtered by 100 μm cell strainer and SVF was collected by centrifugation at 500 g for 5 minutes. Cell pellet was washed once by PBS and filtered with 40 μm cell strainer. Red blood cells were lysed with Red blood cell lysis buffer (BioLegend) according to manufacturer's instructions. The remaining cells were re-suspended and cultured in DMEM/F12 with 20% FBS (GemCell, 100-500) at 37° C., 5% CO2.\nDifferentiation of pre-adipocytes were based on previously published methods (Bunnell et al., 2008). Briefly, 3T3-L1 pre-adipocytes were grown to full confluence in DMEM, 10% FBS (GemCell, 100-500), 10 mM HEPES and antibiotic-antimycotic (full growth media). 2 days later, differentiation was induced by replacing the media with 1 μM dexamethasone, 1 μM rosiglitazone, 500 μM IBMX and 5 μg/ml insulin in full growth media 2 days later after reaching full confluence. Two days later media was replaced by differentiation induction media with 1 μM rosiglitazone and 5 μg/ml insulin for 4 days with media change after 2 days. Cells were kept in maintenance medium (full growth media with 5 μg/ml insulin) for 4 more days for full differentiation. […]\nFor in vitro lipolysis assay, cells were washed with PBS and media were changed to full growth media 1 day before experiment. […] FFAs were measured in the media using a commercial kit (Wako-NEFAHR2) and normalized to protein concentration. […] FFAs were measured and normalized by the explant weights."}, "[3]": {"system": "hepatic glucose production", "assay": "Pyruvate tolerance and glycerol tolerance tests", "assay_type": "in vivo, mouse", "method": "Pyruvate tolerance and glycerol tolerance tests were performed in ob ob and DIO mice after overnight fasting at 1.5 g kg^−1 dose using sodium pyruvate (0.2 g/ml) or 20% glycerol solution in PBS. Insulin tolerance test and glucose tolerance test were performed in ob ob mice after 8 h fasting. 2 U kg^−1 insulin (Humulin R) and 0.5 g kg^−1 glucose were used respectively. Blood glucose from tail bleeding was monitored by a OneTouch glucometer."}, "[4]": {"conditions": "overnight fasted ob/ob mice, 2 h after FGF1 0.5 mg/kg"}}, "data": [{"substance": "FGF1: Recombinant fibroblast growth factor 1 protein, dissolved in PBS, injected subcutaneously", "values": [{"measurement": "HSL phosphorylation at S660 (pHSL)", "setting": "[1]", "value": "suppressed HSL phosphorylation at S660"}, {"measurement": "anti-lipolytic activity of FGF1 with selective inhibitors of PDE4", "setting": "[2]; FGF1 100 ng/ml with roflumilast 2 μM", "value": "blocked by selective inhibitors of PDE4"}, {"measurement": "basal and isoproterenol-induced lipolysis", "setting": "[2]; FGF1 100 ng/ml, 10 min before ISO 1 nM", "value": "acutely suppressed basal and isoproterenol-induced lipolysis"}, {"measurement": "isoproterenol-induced lipolysis in adipocytes derived from PDE4D KO SVF", "setting": "[2]; FGF1 100 ng/ml, ISO 1 nM", "value": "insensitive to FGF1 treatment"}, {"measurement": "pyruvate and glycerol tolerance tests", "setting": "[3]; DIO mice, 2 h after FGF1 0.5 mg/kg", "value": "replicated in DIO mice"}, {"measurement": "suppression of pyruvate utilization", "setting": "[3]; adR1WT vs adR1KO DIO mice", "value": "dependent on adipocyte FGFR1 expression"}, {"measurement": "glycerol tolerance test", "setting": "[3]; [4]", "value": "no differences"}, {"measurement": "pyruvate tolerance test (glucose synthesis from pyruvate)", "setting": "[3]; [4]", "value": "markedly reduced ability to synthesize glucose from pyruvate"}]}]}
